The first assay has as its system GM01896 cells (MPS II dermal fibroblasts). The assay is described as follows: Assay 1: MPS cellular assay, MPS II (heparan sulfate disaccharide biomarkers by LC-MS). Format: cell-based, human. To be noted: Assay 1 for MPS II, heparan sulfate disaccharide biomarkers (I2a4, I2a6, I2S0 and/or I2S6), read-out: IC50 Range. The method in brief:
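Heparan sulfate disaccharide biomarkers quantified by LC-MS after heparinase I/II/III digestion and isotopic aniline labelling, using GM01896 MPS II fibroblasts exposed to compound (at or below 30 μM, 4-21 days). Values given as IC50 by curve fitting; cell viability checked with alamar blue or ATP.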
As to `Cn1c(=O)n(CCN2CCOCC2)c2ccc(-c3cc(Nc4ccc(Cl)cc4)nc(N4CCOCC4)n3)cc21` [5-{6-[(4-chlorophenyl)amino]-2-morpholin-4-ylpyrimidin-4-yl}-3-methyl-1-(2-morpholin-4-ylethyl)-3-hydrobenzimidazol-2-one], the half-inhibitory concentration (IC50) fell in the range of 500 to 1000 nM.
For `Cc1nn(CCN(C)C)c2cc(-c3cc(Nc4ccc(Cl)cc4)nc(N4CCOCC4)n3)ccc12` [[2-(6-{6-[(4-chlorophenyl)amino]-2-morpholin-4-ylpyrimidin-4-yl}-3-methyl(1H-indazoly))ethyl]dimethylamine], the IC50 was 1000 to 5000 nM.

The same assay, now with this note: Homo sapiens, Fibroblast, Assay 1 for MPS II, heparan sulfate disaccharide biomarkers (I2a4, I2a6, I2S0 and/or I2S6), read-out: IC50 Range.
Turning to `CNC(=O)c1ccc(Nc2cc(-c3ccc4cnn(CC5CC5)c4c3)nc(N3CCOCC3)n2)cc1` [[4-({6-[1-(cyclopropylmethyl)(1H-indazol-6-yl)]-2-morpholin-4-ylpyrimidin-4-yl}amino)phenyl]-N-methylcarboxamide], the IC50 is less than 500 nM.
Same read-out and setting: then `Cn1ncc2ccc(-c3cc(Nc4ccc(C(=O)NC5(C)CC5)cc4)nc(N4CCOCC4)n3)cc21` [(4-{[6-(1-methyl(1H-indazol-6-yl))-2-morpholin-4-ylpyrimidin-4-yl]amino}phenyl)-N-(methylcyclopropyl)carboxamide], with 1000 to 5000 nM.
For the compound `Cn1ccnc1-c1ccc(Nc2cc(-c3ccc4cnn(C)c4c3)nc(N3CCOCC3)n2)cc1` [[6-(1-methyl(1H-indazol-6-yl))-2-morpholin-4-ylpyrimidin-4-yl][4-(1-methylimidazol-2-yl)phenyl]amine], the IC50 lay in the range of 500 to 1000 nM.
With `COC(=O)c1ccc(Nc2cc(-c3ccc4cnn(C)c4c3)nc(N3CCOCC3)n2)cc1` [methyl 4-{[6-(1-methyl(1H-indazol-6-yl))-2-morpholin-4-ylpyrimidin-4-yl]amino}benzoate], the IC50 is 1000 to 5000 nM.
Take `CN(C)c1nn(C)c2cc(-c3cc(Nc4ccc(Cl)cc4)nc(N4CCOCC4)n3)ccc12` [(6-{6-[(4-chlorophenyl)amino]-2-morpholin-4-ylpyrimidin-4-yl}-1-methyl(1H-indazol-3-yl))dimethylamine]: the IC50 lay in the range of 1000 to 5000 nM.
As to `CCc1nn(C)c2cc(-c3cc(Nc4ccc(Cl)cc4)nc(N4CCOCC4)n3)ccc12` [(4-chlorophenyl)[6-(3-ethyl-1-methyl(1H-indazol-6-yl))-2-morpholin-4-ylpyrimidin-4-yl]amine], the IC50 was in the range of 1000 to 5000 nM.
Same read-out and setting: to `CC(=O)c1ccc(Nc2cc(-c3ccc4cnn(C)c4c3)nc(N3CCOCC3)n2)cc1` [1-acetyl-4-{[6-(1-methyl(1H-indazol-6-yl))-2-morpholin-4-ylpyrimidin-4-yl]amino}benzene] belongs 500 to 1000 nM.
The same measure, in the same setting: then `CNC(=O)c1ccc(Nc2cc(-c3ccc4c(c3)ncn4CCCN3CCOCC3)nc(N3CCOCC3)n2)cc1` [N-methyl[4-({2-morpholin-4-yl-6-[1-(3-morpholin-4-ylpropyl)benzimidazol-5-yl]pyrimidin-4-yl}amino)phenyl]carboxamide], with 1000 to 5000 nM; and `Cn1ccc2ccc(Nc3cc(-c4ccc5c(CCCN)nn(C)c5c4)nc(N4CCOCC4)n3)cc21` [{6-[3-(3-aminopropyl)-1-methyl(1H-indazol-6-yl)]-2-morpholin-4-ylpyrimidin-4-yl}(1-methylindol-6-yl)amine], with less than 500 nM; and `CCn1ccc2ccc(Nc3cc(-c4ccc5cnn(C)c5c4)nc(N4CCOCC4)n3)cc21` [(1-ethylindol-6-yl)[6-(1-methyl(1H-indazol-6-yl))-2-morpholin-4-ylpyrimidin-4-yl]amine], with 1000 to 5000 nM.
In the case of `Clc1ccc(Nc2cc(-c3ccc4c(c3)ncn4CCN3CCOCC3)nc(N3CCOCC3)n2)cc1` [(4-chlorophenyl){2-morpholin-4-yl-6-[1-(2-morpholin-4-ylethyl)benzimidazol-5-yl]pyrimidin-4-yl}amine], the IC50 was 500 to 1000 nM.
As to `Cc1c(C)n(C)c2cc(Nc3cc(-c4ccc5c(CCN6CCOCC6)nn(C)c5c4)nc(N4CCOCC4)n3)ccc12` [{6-[1-methyl-3-(2-morpholin-4-ylethyl)(1H-indazol-6-yl)]-2-morpholin-4-ylpyrimidin-4-yl}(1,2,3-trimethylindol-6-yl)amine], the IC50 was in the range of 500 to 1000 nM.
Same read-out and setting: then `Cn1cnc2ccc(-c3cc(Nc4ccc(F)cc4)nc(N4CCOCC4)n3)cc21` [(4-fluorophenyl)[6-(1-methylbenzimidazol-6-yl)-2-morpholin-4-ylpyrimidin-4-yl]amine], with 1000 to 5000 nM.
The same measure, in the same setting: then `Cn1ncc2cc(Nc3cc(-c4ccc5cnn(C)c5c4)nc(N4CCOCC4)n3)ccc21` [(1-methyl(1H-indazol-5-yl))[6-(1-methyl(1H-indazol-6-yl))-2-morpholin-4-ylpyrimidin-4-yl]amine], with 1000 to 5000 nM.
Still for that read-out and setting: to `Cc1cnn(-c2ccc(Nc3cc(-c4ccc5c(C)nn(C)c5c4)nc(N4CCOCC4)n3)cc2)n1` [[6-(1,3-dimethyl(1H-indazol-6-yl))-2-morpholin-4-ylpyrimidin-4-yl][4-(4-methyl(1,2,3-triazol-2-yl))phenyl]amine] belongs less than 500 nM; to `COC(=O)c1ccc(Nc2cc(-c3ccc4cnn(CCCN5CCOCC5)c4c3)nc(N3CCOCC3)n2)cc1` [methyl 4-({2-morpholin-4-yl-6-[1-(3-morpholin-4-ylpropyl)(1H-indazol-6-yl)]pyrimidin-4-yl}amino)benzoate], 500 to 1000 nM; to `Cn1ncc2ccc(-c3cc(Nc4ccc(-c5ccn[nH]5)cc4)nc(N4CCOCC4)n3)cc21` [[6-(1-methyl(1H-indazol-6-yl))-2-morpholin-4-ylpyrimidin-4-yl](4-pyrazol-5-ylphenyl)amine], less than 500 nM.
For `CNC(=O)c1ccc(Nc2cc(-c3ccc4nc(C)n(C5CCC5)c4c3)nc(N3CCOCC3)n2)cc1` [(4-{[6-(1-cyclobutyl-2-methylbenzimidazol-6-yl)-2-morpholin-4-ylpyrimidin-4-yl]amino}phenyl)-N-methylcarboxamide], the IC50 was less than 500 nM.
Regarding `Clc1ccc(Nc2cc(-c3ccc4ncn(C5CC5)c4c3)nc(N3CCOCC3)n2)cc1` [(4-chlorophenyl)[6-(1-cyclopropylbenzimidazol-6-yl)-2-morpholin-4-ylpyrimidin-4-yl]amine], the IC50 fell in the range of 500 to 1000 nM.
Same read-out and setting: to `CNC(=O)c1ccc(Nc2cc(-c3ccc4ncn(CCN(C)C)c4c3)nc(N3CCOCC3)n2)cc1` [{4-[(6-{1-[2-(dimethylamino)ethyl]benzimidazol-6-yl}-2-morpholin-4-ylpyrimidin-4-yl)amino]phenyl}-N-methylcarboxamide] belongs less than 500 nM; to `CCn1ccc2ccc(Nc3cc(-c4ccc5c(C)nn(C)c5c4)nc(N4CCOCC4)n3)cc21` [[6-(1,3-dimethyl(1H-indazol-6-yl))-2-morpholin-4-ylpyrimidin-4-yl](1-ethylindol-6-yl)amine], 1000 to 5000 nM; to `Cc1nn(C)c2cc(-c3cc(Nc4ccc(-c5nnc(C(F)(F)F)[nH]5)cc4)nc(N4CCOCC4)n3)ccc12` [[6-(1,3-dimethyl(1H-indazol-6-yl))-2-morpholin-4-ylpyrimidin-4-yl]{4-[5-(trifluoromethyl)(4H-1,2,4-triazol-3-yl)]phenyl}amine], 1000 to 5000 nM.
As for `Clc1ccc(Nc2cc(-c3ccc4cn(CC5CC5)nc4c3)nc(N3CCOCC3)n2)cc1` [(4-chlorophenyl){6-[2-(cyclopropylmethyl)(2H-indazol-6-yl)]-2-morpholin-4-ylpyrimidin-4-yl}amine], the IC50 fell in the range of 1000 to 5000 nM.
Turning to `Cn1nc(CCN2CCOCC2)c2ccc(-c3cc(Nc4ccc(-n5nccn5)cc4)nc(N4CCOCC4)n3)cc21` [{6-[1-methyl-3-(2-morpholin-4-ylethyl)(1H-indazol-6-yl)]-2-morpholin-4-ylpyrimidin-4-yl}(4-(1,2,3-triazol-2-yl)phenyl)amine], the IC50 was less than 500 nM.
`CCNC(=O)c1ccc(Nc2cc(-c3ccc4ncn(C)c4c3)nc(N3CCOCC3)n2)cc1` [N-ethyl(4-{[6-(1-methylbenzimidazol-6-yl)-2-morpholin-4-ylpyrimidin-4-yl]amino}phenyl)carboxamide]: the IC50 was 1000 to 5000 nM.
On to `Cc1nn(C)c2cc(-c3cc(Nc4ccc(-c5ncco5)cc4)nc(N4CCOCC4)n3)ccc12` [[6-(1,3-dimethyl(1H-indazol-6-yl))-2-morpholin-4-ylpyrimidin-4-yl](4-(1,3-oxazol-2-yl)phenyl)amine], for which the IC50 lay in the range of 500 to 1000 nM.
As to `Cn1ncc2ccc(-c3cc(Nc4ccc(C#N)cc4)nc(N4CCOCC4)n3)cc21` [4-{[6-(1-methyl(1H-indazol-6-yl))-2-morpholin-4-ylpyrimidin-4-yl]amino}benzenecarbonitrile], the IC50 was 1000 to 5000 nM.
With `Cn1nc(CCN2CCOCC2)c2ccc(-c3cc(Nc4ccc(Br)cc4)nc(N4CCOCC4)n3)cc21` [(4-bromophenyl){6-[1-methyl-3-(2-morpholin-4-ylethyl)(1H-indazol-6-yl)]-2-morpholin-4-ylpyrimidin-4-yl}amine], the IC50 lay in the range of 500 to 1000 nM.
As for `CNC(=O)c1ccc(Nc2cc(-c3ccc4c(c3)ncn4CC3CC3)nc(N3CCOCC3)n2)cc1` [[4-({6-[1-(cyclopropylmethyl)benzimidazol-5-yl]-2-morpholin-4-ylpyrimidin-4-yl}amino)phenyl]-N-methylcarboxamide], the IC50 is less than 500 nM.
Regarding `Cn1cnc2ccc(-c3cc(Nc4ccc(Br)cc4)nc(N4CCOCC4)n3)cc21` [(4-bromophenyl)[6-(1-methylbenzimidazol-6-yl)-2-morpholin-4-ylpyrimidin-4-yl]amine], the IC50 was 500 to 1000 nM.
The same measure, in the same setting: then `CNC(=O)c1ccc(Nc2cc(-c3ccc4cnn(C5CCC5)c4c3)nc(N3CCOCC3)n2)cc1` [(4-{[6-(1-cyclobutyl(1H-indazol-6-yl))-2-morpholin-4-ylpyrimidin-4-yl]amino}phenyl)-N-methylcarboxamide], with less than 500 nM; and `Clc1ccc(Nc2cc(-c3ccc4cnn(CCN5CCOCC5)c4c3)nc(N3CCOCC3)n2)cc1` [(4-chlorophenyl){2-morpholin-4-yl-6-[1-(2-morpholin-4-ylethyl)(1H-indazol-6-yl)]pyrimidin-4-yl}amine], with 500 to 1000 nM.

What is called IC50 is the concentration that gives 50% inhibition.

Values taken from US20190151312A1, “HEPARAN SULFATE BIOSYNTHESIS INHIBITORS FOR THE TREATMENT OF DISEASES” (BioMarin Pharmaceutical Inc., priority 2014, published 2019).
